The subject of assay [1] is Mus musculus. Put plainly: Antagonistic activity against Scopolamine induced behavioral deficits in mice at dose 1.25 mg/kg sc; 1/6. The class given is functional.
Assay [2] has as its system Mus musculus. Briefly: Antagonistic activity against Scopolamine induced behavioral deficits in mice at dose 2.5 mg/kg sc. In kind it is functional. Conditions: route subcutaneous.
Assay [3] deals with Muscarinic acetylcholine receptor. The class given is cell membranes, Membrane.
Description: Inhibition of [3H]quinuclidinyl benzilate (QNB) binding from rat forebrain membranes in the absence of Zn
The target is the same in assay [4]. In kind it is cell membranes, Membrane. The source holds these as a separate data set.
Description: Inhibition of [3H]quinuclidinyl benzilate (QNB) binding from rat forebrain membranes in the presence of Zn
Assay [5] concerns the target Sodium-dependent noradrenaline transporter (Homo sapiens, UniProt P23975).
Description: Inhibitory activity against norepinephrine (NE) uptake in rat whole brain synaptosome preparation
The species entered for assay [6] is Mus musculus. Briefly: animal or person.
Description: Effective dose against administration in mice
In assay [7] the target is T1, Adrenergic receptor alpha-2 (Rattus norvegicus, UniProt P22086+P19328+P22909).
T1 sequence (P22086 whole entry): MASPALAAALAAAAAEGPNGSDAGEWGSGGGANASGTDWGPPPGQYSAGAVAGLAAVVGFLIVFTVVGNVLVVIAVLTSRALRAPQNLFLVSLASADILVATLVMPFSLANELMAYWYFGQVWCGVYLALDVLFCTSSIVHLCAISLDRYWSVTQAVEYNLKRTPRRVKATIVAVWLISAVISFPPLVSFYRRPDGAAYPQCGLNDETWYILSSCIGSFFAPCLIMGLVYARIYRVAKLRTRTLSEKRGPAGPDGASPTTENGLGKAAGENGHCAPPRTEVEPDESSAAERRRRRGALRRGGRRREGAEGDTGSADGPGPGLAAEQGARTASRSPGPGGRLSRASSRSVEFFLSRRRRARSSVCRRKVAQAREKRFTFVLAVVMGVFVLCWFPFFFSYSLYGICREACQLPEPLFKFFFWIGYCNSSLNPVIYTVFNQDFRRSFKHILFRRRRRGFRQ
T1 sequence (P19328 whole entry): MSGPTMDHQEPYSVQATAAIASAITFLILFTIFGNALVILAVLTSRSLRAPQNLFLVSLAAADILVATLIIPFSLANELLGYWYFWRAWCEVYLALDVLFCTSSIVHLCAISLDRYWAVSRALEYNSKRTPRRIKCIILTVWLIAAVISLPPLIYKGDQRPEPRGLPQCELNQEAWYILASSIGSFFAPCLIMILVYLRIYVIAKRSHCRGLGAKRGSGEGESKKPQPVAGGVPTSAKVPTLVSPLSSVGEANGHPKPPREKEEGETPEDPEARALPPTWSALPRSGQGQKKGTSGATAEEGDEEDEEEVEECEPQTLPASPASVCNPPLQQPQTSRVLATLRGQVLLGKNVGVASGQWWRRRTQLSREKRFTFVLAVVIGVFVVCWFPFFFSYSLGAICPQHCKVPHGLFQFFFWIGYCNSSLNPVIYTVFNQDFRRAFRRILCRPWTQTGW
T1 sequence (P22909 whole entry): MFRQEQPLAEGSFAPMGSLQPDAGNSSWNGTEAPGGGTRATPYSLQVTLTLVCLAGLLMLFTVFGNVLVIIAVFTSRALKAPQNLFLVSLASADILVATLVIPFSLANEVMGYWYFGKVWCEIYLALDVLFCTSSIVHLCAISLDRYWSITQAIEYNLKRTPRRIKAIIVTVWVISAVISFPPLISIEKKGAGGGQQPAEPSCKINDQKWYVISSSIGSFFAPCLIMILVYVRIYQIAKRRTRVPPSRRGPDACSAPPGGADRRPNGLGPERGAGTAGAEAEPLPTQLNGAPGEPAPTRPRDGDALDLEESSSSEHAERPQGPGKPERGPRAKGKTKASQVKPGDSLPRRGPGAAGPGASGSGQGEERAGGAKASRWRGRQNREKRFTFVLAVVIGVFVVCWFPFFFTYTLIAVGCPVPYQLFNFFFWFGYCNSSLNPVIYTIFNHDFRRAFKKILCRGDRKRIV
Put plainly: Inhibitory activity against [3H]clonidine binding to Alpha-2 adrenergic receptor in rat cortex.

Assay [8] is filed under the species Mus musculus. Put plainly: Antagonistic activity against Scopolamine induced behavioral deficits in mice; 0/9. In kind it is functional.
Assay [9] addresses T2, Acetylcholinesterase (Rattus norvegicus, UniProt P37136).
T2 sequence (P37136 whole entry): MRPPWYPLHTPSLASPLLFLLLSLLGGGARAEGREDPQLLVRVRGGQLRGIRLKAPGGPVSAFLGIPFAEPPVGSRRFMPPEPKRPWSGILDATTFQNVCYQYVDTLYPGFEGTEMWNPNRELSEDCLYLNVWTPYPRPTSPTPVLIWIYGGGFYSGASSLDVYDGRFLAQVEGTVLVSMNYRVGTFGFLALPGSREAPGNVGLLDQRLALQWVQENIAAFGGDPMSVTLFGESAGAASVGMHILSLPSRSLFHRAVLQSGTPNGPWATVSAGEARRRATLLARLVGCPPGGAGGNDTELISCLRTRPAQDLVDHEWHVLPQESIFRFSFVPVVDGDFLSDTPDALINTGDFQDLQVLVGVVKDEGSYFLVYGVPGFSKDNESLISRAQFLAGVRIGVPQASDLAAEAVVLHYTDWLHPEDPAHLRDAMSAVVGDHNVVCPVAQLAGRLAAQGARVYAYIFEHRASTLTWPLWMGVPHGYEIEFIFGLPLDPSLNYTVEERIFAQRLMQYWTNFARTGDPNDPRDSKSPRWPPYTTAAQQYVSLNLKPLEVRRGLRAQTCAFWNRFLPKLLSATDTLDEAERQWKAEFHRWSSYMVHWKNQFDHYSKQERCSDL
Description: Inhibitory activity against acetylcholinesterase in rat striatal preparation

The subject of assay [10] is Mus musculus. Put plainly: Antagonistic activity against Scopolamine induced behavioral deficits in mice at dose 0.16 mg/kg sc. The class given is functional. Conditions: route subcutaneous.
The species entered for assay [11] is Mus musculus. Briefly: Antagonistic activity against Scopolamine induced behavioral deficits in mice; 1/10. The class given is functional.
For assay [12], the system named is Mus musculus. Briefly: Antagonistic activity against Scopolamine induced behavioral deficits in mice at dose 0.63 mg/kg sc. The class given is functional. Conditions: route subcutaneous.
Assay [13] is filed under the species Mus musculus.
Assay [14] is filed under the species Mus musculus. Briefly: Antagonistic activity against Scopolamine induced behavioral deficits in mice. In kind it is functional.
Assay [15] deals with Mus musculus. Briefly: Antagonistic activity against Scopolamine induced behavioral deficits in mice at dose 0.04 mg/kg sc. Conditions: route subcutaneous. The class given is functional.
Assay [16] is filed under the species Mus musculus. Briefly: Antagonistic activity against Scopolamine induced behavioral deficits in mice; 2/3. In kind it is functional.
For assay [17], the system named is Mus musculus. Put plainly: Antagonistic activity against Scopolamine induced behavioral deficits in mice at dose 0.3 mg/kg sc. The class given is functional. Conditions: route subcutaneous.
In assay [18] the test system is Mus musculus. Briefly: Antagonistic activity against Scopolamine induced behavioral deficits in mice at dose 1.0 mg/kg sc. The class given is functional. The settings on record: route subcutaneous.
In assay [19] the test system is Mus musculus. Put plainly: Antagonistic activity against Scopolamine induced behavioral deficits in mice at dose 1.25 mg/kg sc; 0/6. In kind it is functional.
Assay [20] deals with Mus musculus. Briefly: Antagonistic activity against Scopolamine induced behavioral deficits in mice at dose 5.0 mg/kg sc; 1/3. The class given is functional.
The species entered for assay [21] is Mus musculus. Briefly: Antagonistic activity against Scopolamine induced behavioral deficits in mice; 1/3. In kind it is functional.
Assay [22] concerns Mus musculus. Put plainly: Antagonistic activity against Scopolamine induced behavioral deficits in mice at dose 5.0 mg/kg sc; 2/6. In kind it is functional.
For assay [23], the species on record is Mus musculus. Conditions: dose 0.63 mg/kg; route subcutaneous.
The species named for assay [24] is Mus musculus. Conditions: dose 5 mg/kg; route subcutaneous.
The species entered for assay [25] is Mus musculus. Put plainly: Antagonistic activity against Scopolamine induced behavioral deficits in mice; 3/9. The class given is functional.
Assay [26] concerns Mus musculus. Briefly: Antagonistic activity against Scopolamine induced behavioral deficits in mice at dose 10 mg/kg sc. The class given is functional. The settings on record: route subcutaneous.
Assay [27] deals with Mus musculus. Put plainly: Antagonistic activity against Scopolamine induced behavioral deficits in mice at dose 20 mg/kg sc. The settings on record: route subcutaneous. The class given is functional.
For assay [28], the species on record is Mus musculus. Conditions: dose 2.5 mg/kg; route subcutaneous.

Each structure is given as a SMILES string.

Sequence of Sodium-dependent noradrenaline transporter (P23975 whole entry): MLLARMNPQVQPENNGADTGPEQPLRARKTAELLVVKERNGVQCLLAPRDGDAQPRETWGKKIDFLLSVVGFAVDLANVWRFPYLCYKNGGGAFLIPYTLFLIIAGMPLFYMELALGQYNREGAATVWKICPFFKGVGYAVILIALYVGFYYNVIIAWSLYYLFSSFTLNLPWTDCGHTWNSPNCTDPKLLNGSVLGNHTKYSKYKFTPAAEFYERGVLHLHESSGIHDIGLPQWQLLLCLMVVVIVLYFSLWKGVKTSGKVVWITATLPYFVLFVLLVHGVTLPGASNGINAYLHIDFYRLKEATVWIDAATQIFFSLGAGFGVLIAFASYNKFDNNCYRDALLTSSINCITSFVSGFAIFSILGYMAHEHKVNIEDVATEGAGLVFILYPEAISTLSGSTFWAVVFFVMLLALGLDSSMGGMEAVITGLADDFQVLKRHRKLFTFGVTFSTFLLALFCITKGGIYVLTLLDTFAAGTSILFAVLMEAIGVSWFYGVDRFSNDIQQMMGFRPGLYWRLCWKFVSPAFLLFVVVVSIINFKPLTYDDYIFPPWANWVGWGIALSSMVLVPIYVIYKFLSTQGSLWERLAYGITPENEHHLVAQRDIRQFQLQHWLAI

By IC50 is commonly meant the concentration that inhibits the measured activity by half. A word on the ED50: it is the dose that gives a 50% effect, or the effect in half of the subjects. `CCCN(c1ccnc2cc(Cl)ccc12)n1ccc2ccccc21.O=C(O)/C=C/C(=O)O` yielded an Antagonism in assay [1] of 1. Further, the Response in [2] turned out to be 29%. The IC50 in assay [3] is above 300 µM; in assay [4] it was 180 µM; in assay [5], 6.9 µM. In [6], this compound showed an ED50 above 20 mg/kg.

Take `CCCN(c1ccncc1)n1cc(CC)c2ccccc21`: the IC50 in assay [7] turned out to be 3.6 µM; in [3], 2.7 µM; in assay [4], 0.71 µM; in assay [9], 20 µM; in [5] it was 2.1 µM. For the same compound, the Antagonism in assay [8] was 0. In addition, the ED50 in [6] is 0.44 mg/kg.

As for `CCCN(c1ccncc1)n1cc(C(C)=O)c2ccccc21`, the Response in [10] turned out to be 20%. In addition, the IC50 in [3] amounted to 29 µM; in assay [4], 2.7 µM; in [9] it was 58 µM; in assay [5], 3.3 µM. For the same compound, in [11], the Antagonism was 1. The same compound registered an ED50 in [6] of 5 mg/kg.

With `CCCN(c1cc(Cl)ncn1)n1ccc2ccccc21`, the Response in assay [12] and in [2] was 33% in each case. Besides, the IC50 in assay [3] was above 1000 µM; in assay [4], above 1000 µM; in assay [9], above 100 µM; in assay [5], 2.6 µM. Further, the Antagonism in [13] came out at 3. The compound also displayed an ED50 in [6] above 20 mg/kg.

Take `CCCCN(c1ccncc1)n1ccc2ccccc21`: the IC50 was 0.63 µM in [7]; 4 µM in assay [3]; 1.5 µM in [4]; 62 µM in [9]; 0.43 µM in assay [5]. Moreover, in assay [14], the Agonism was determined as 1. In addition, the Response in assay [15] worked out at 23%. Moreover, the ED50 in assay [6] turned out to be 5.4 mg/kg.

`c1ccc2c(c1)ccn2Cc1ccncc1` displayed an Antagonism in assay [16] of 2. For the same compound, the values for the Response in [17] and in [18] were 33% and 20%, respectively. Further, the IC50 in assay [3] was 223 µM; in assay [4], 84 µM; in [5], above 20 µM.

As for `CCCN(c1ccncc1)n1ncc2ccccc21.O=C(O)/C=C/C(=O)O`, in assay [19], the Antagonism worked out at 0. Further, the IC50 in [3] is 13 µM; in assay [4] it was 4 µM; in [9], above 100 µM; in assay [5] it was 1.4 µM. This compound registered an ED50 in assay [6] of 11 mg/kg.

With `CCCC(c1ccncc1)n1ccc2ccccc21` (stereo not drawn), in [20], the Antagonism turned out to be 1. In assay [17], this compound showed a Response of 20%. The IC50 worked out at 142 µM in [3], 29 µM in [4] and 0.67 µM in assay [5].

For the compound `CN(c1ccncc1)n1ccc2cc(Br)ccc21`, the Antagonism in [21] is 1. Also, the Response in assay [18] is given as 44%. Also, the IC50 is 4.6 µM in assay [3], 2.5 µM in assay [4], above 100 µM in assay [9] and 13 µM in [5]. The ED50 in [6] is above 20 mg/kg.

`CCCN(c1ccncc1)n1ccc2cc(Br)ccc21`: the Antagonism in assay [22] is given as 2. For the same compound, the IC50 in assay [3] was 4.4 µM; in assay [4], 1.6 µM; in [9], above 100 µM; in assay [5], 2.6 µM. Further, the Response in [23] and in assay [24] was 33% throughout. Also, in assay [6], the ED50 is above 20 mg/kg.

As to `C#CCN(c1ccncc1)n1ccc2ccccc21`, the IC50 is 0.5 µM in assay [7]; 11 µM in assay [3]; 2.5 µM in assay [4]; above 100 µM in assay [9]; 0.68 µM in assay [5]. Also, in assay [25], the Antagonism was determined as 3. The Response is 21% in assay [26], 27% in assay [27] and 21% in [28]. In assay [6], this compound yielded an ED50 of 3.9 mg/kg.
